Article PMC6442119, “The antitumor activity of CYB-L10, a human topoisomerase IB catalytic inhibitor” (Journal of Enzyme Inhibition and Medicinal Chemistry, 2019)

Legend:
Test in all cases: NCI60 assay
Type in all cases: cell-based
786-0 = conditions: Homo sapiens; Renal cancer, 786-0, 48 h
Experimental: (§1) CYB-L10 was tested using the protocols by the NCI, which has been described previously. […] The overall antiproliferative potential is quantified as a mean-graph midpoint (MGM). […] It was selected and submitted to National Cancer Institute (NCI, USA) for a developmental therapeutics assay against the 60 clinical tumor cell lines representing nine tissue types (NCI60)[23–25]. The tumor cells were incubated with CYB-L10 for 48 h and stained with sulphorhodamine B dye. Cell growth inhibition (GI50) was calculated relative to the control without compound.

CCRF-CEM = conditions: Homo sapiens, Leukemia, 48 h
Experimental: as §1

DU-145 = conditions: Homo sapiens, Prostate cancer, DU-145, 48 h
Experimental: as §1

EKVX = conditions: Homo sapiens, Non-small cell lung cancer, 48 h
Experimental: as §1

HCC-2998 = conditions: Homo sapiens; Colon cancer, HCC-2998, 48 h
Experimental: as §1

HCT116 = conditions: Homo sapiens, HCT-116, Colon cancer, HCT116, 48 h
Experimental: as §1

HOP-62 = conditions: Homo sapiens; Non-small cell lung cancer, HOP-62, 48 h
Experimental: as §1

HS 578T = conditions: Homo sapiens, Breast cancer, 48 h
Experimental: as §1

HT29 = conditions: Homo sapiens, HT-29; Colon cancer, HT29, 48 h
Experimental: as §1

K-562 = conditions: Homo sapiens, K562; Leukemia, K-562, 48 h
Experimental: as §1

KM12 = conditions: Homo sapiens; Colon cancer, KM12, 48 h
Experimental: as §1

M14 = conditions: Homo sapiens; Melanoma, M14, 48 h
Experimental: as §1

MALME-3M = conditions: Homo sapiens, Melanoma, 48 h
Experimental: as §1

MCF7 = conditions: Homo sapiens, Breast cancer, MCF7, 48 h
Experimental: as §1

MDA-MB-231/ATCC = conditions: Homo sapiens, Breast cancer, 48 h
Experimental: as §1

MDA-MB-435 = conditions: Homo sapiens; Melanoma, MDA-MB-435, 48 h
Experimental: as §1

MDA-MB-468 = conditions: Homo sapiens; Breast cancer, MDA-MB-468, 48 h
Experimental: as §1

NCI-H226 = conditions: Homo sapiens; Non-small cell lung cancer, NCI-H226, 48 h
Experimental: as §1

NCI-H23 = conditions: Homo sapiens; Non-small cell lung cancer, NCI-H23, 48 h
Experimental: as §1

NCI-H322M = conditions: Homo sapiens, Non-small cell lung cancer, 48 h
Experimental: as §1

NCI-H460 = conditions: Homo sapiens; Non-small cell lung cancer, NCI-H460, 48 h
Experimental: as §1

NCI-H522 = conditions: Homo sapiens; Non-small cell lung cancer, NCI-H522, 48 h
Experimental: as §1

OVCAR-3 = conditions: Homo sapiens; Ovarian cancer, OVCAR-3, 48 h
Experimental: as §1

OVCAR-4 = conditions: Homo sapiens; Ovarian cancer, OVCAR-4, 48 h
Experimental: as §1

OVCAR-5 = conditions: Homo sapiens; Ovarian cancer, OVCAR-5, 48 h
Experimental: as §1

OVCAR-8 = conditions: Homo sapiens; Ovarian cancer, OVCAR-8, 48 h
Experimental: as §1

PC-3 = conditions: Homo sapiens; Prostate cancer, PC-3, 48 h
Experimental: as §1

RXF 393 = conditions: Homo sapiens; Renal cancer, RXF 393, 48 h
Experimental: as §1

SF-295 = conditions: Homo sapiens; CNS cancer, SF-295, 48 h
Experimental: as §1

SF-539 = conditions: Homo sapiens; CNS cancer, SF-539, 48 h
Experimental: as §1

SK-MEL-2 = conditions: Homo sapiens; Melanoma, SK-MEL-2, 48 h
Experimental: as §1

SK-MEL-5 = conditions: Homo sapiens; Melanoma, SK-MEL-5, 48 h
Experimental: as §1

SK-OV-3 = conditions: Homo sapiens; Ovarian cancer, SK-OV-3, 48 h
Experimental: as §1

SN 12C = conditions: Homo sapiens, SN12C, Renal cancer, 48 h
Experimental: as §1

SNB-19 = conditions: Homo sapiens; CNS cancer, SNB-19, 48 h
Experimental: as §1

SR = conditions: Homo sapiens, Leukemia, 48 h
Experimental: as §1

TK-10 = conditions: Homo sapiens; Renal cancer, TK-10, 48 h
Experimental: as §1

UACC-257 = conditions: Homo sapiens; Melanoma, UACC-257, 48 h
Experimental: as §1

UACC-62 = conditions: Homo sapiens; Melanoma, UACC-62, 48 h
Experimental: as §1

UO-31 = conditions: Homo sapiens; Renal cancer, UO-31, 48 h
Experimental: as §1

## O=C1c2cccnc2C(=O)c2c1c(C(=O)OCCN1CCOCC1)c1ccccn21 [CYB-L10]
786-0
  GI50: 29 nM
CCRF-CEM
  GI50: 379 nM
DU-145
  GI50: 30.5 nM
EKVX
  GI50: 1360 nM
HCC-2998
  GI50: 252 nM
HCT116
  GI50: 41.7 nM
HOP-62
  GI50: < 10 nM
HS 578T
  GI50: 36.9 nM
HT29
  GI50: 580 nM
K-562
  GI50: 28.2 nM
KM12
  GI50: 168 nM
M14
  GI50: < 10 nM
MALME-3M
  GI50: 45 nM
MCF7
  GI50: < 10 nM
MDA-MB-231/ATCC
  GI50: 1620 nM
MDA-MB-435
  GI50: 64.6 nM
MDA-MB-468
  GI50: 1820 nM
NCI-H226
  GI50: 28.9 nM
NCI-H23
  GI50: < 10 nM
NCI-H322M
  GI50: 97.7 nM
NCI-H460
  GI50: < 10 nM
NCI-H522
  GI50: 11.9 nM
OVCAR-3
  GI50: 170 nM
OVCAR-4
  GI50: 1220 nM
OVCAR-5
  GI50: 648 nM
OVCAR-8
  GI50: 28.1 nM
PC-3
  GI50: 190 nM
RXF 393
  GI50: 35.1 nM
SF-295
  GI50: 25.7 nM
SF-539
  GI50: < 10 nM
SK-MEL-2
  GI50: 46.2 nM
SK-MEL-5
  GI50: 28.5 nM
SK-OV-3
  GI50: < 10 nM
SN 12C
  GI50: < 10 nM
SNB-19
  GI50: < 10 nM
SR
  GI50: < 10 nM
TK-10
  GI50: 361 nM
UACC-257
  GI50: 54.6 nM
UACC-62
  GI50: < 10 nM
UO-31
  GI50: 13 nM
